Laboratory results taken from patent publication US7744927B2, “Methods of promoting hematopoietic and mesenchymal cell proliferation and differentiation” (University of Southern California, priority 1997, dated 2010).

Assays:
[1] = test system: rat peritoneal macrophages; assay: Respiratory burst (hydrogen peroxide generation), rat peritoneal macrophages; assay type: cell-based; conditions: alone and in response to PMA 10 ng/ml; 4 hours exposure
Procedure: (§1) The respiratory burst of leukocytes (macrophages and polymorphonuclear neutrophils) is one component of the mediator system used to kill bacteria. As with phagocytosis, the level of this respiratory burst activity in resident macrophages is low. […] Studies were conducted to assess the effect of in vitro exposure of murine or rat peritoneal macrophages and human peripheral blood mononuclear cells (PBMC) to various concentrations of AII on the capacity to generate hydrogen peroxide via the respiratory burst system. For the human studies, five different donors were examined.
(§2) The murine or rat peritoneal cells were harvested by lavage with 5-15 ml of cold PBS with 0.5% bovine serum albumin. The human PBMC were harvested by venipuncture from normal human volunteers and isolated from peripheral blood by Ficoll Hypaque density centrifugation. After isolation, the cells were resuspended at 1×10^6 cells/ml and placed at 100 μl per well into 96 well plates. The cells were incubated with various concentrations of AII or AII analogues for 4 hours at 37° C. The cells were then preloaded with a fluorescent probe for hydrogen peroxide, 2,7 dichlorofluorescein acetate, which is nonfluorescent in the absence of hydrogen peroxide. […] One hour after stimulation the level of fluorescence produced was measured on a Cytofluor 2350 multiwell fluorometer.

murine HPC = assay: Murine HPC colony formation in the absence of colony stimulating factors; assay type: cell-based, C57B1/6 mice; conditions: 14 days
Procedure: HPC were harvested from C57B1/6 mice by immunomagnetic affinity chromatography and placed in semi-solid cultures with optimal growth medium in the absence of colony stimulating factors. At various times after initiation of culture, the formation of colonies and the size of the colonies (number of cells/colony) was assessed microscopically.
Female C57B1/6 mice were purchased from Simonson and used as a source of bone marrow cells in this study. The bone marrow was harvested from the femur and tibia of mice by flushing with phosphate buffered saline (PBS), pH 7.4, containing 2% fetal bovine serum (FBS) with a 21-gauge needle. The eluant from the flushing was centrifuged and the pellet was resuspended at 4×10^7 nucleated cells/ml in PBS containing PBS containing 2% FBS and 5% normal rat serum.
The reagents for immunomagnetic labeling were purchased from Stem Cell Technologies, Inc. (Vancouver, BC). Biotin-labeled monoclonal antibodies to the following murine lineage-specific cell surface antigens were included in a cocktail for HPC enrichment and used according to the manufacturer's instructions: CD5 (Ly-1), CD45-R (B220), CD11b (Mac-1), Myeloid Differentiation Antigen (Gr-1) and Erythroid Cells (TER 119) Ten μl of antibody cocktail was added to the bone marrow, mixed and allowed to incubate at 4° C. for 15 minutes. […]

wound tissue = conditions: application to wound tissue; cited from earlier work
AT2 receptor = conditions: cited from earlier work
[2] = test system: murine peritoneal macrophages; assay: Respiratory burst (hydrogen peroxide generation), murine peritoneal macrophages; assay type: cell-based; conditions: alone and in response to PMA 10 ng/ml; 4 hours exposure
Procedure: as §1, §2

Asp-Arg-Val-Tyr-Ile-His-Pro-Phe [AII, known pressor agent, commercially available]
ability to generate hydrogen peroxide (respiratory burst) [1]: increased the ability of leukocytes to generate hydrogen peroxide
HPC colony size / HPC proliferation (murine HPC): HPC colony size increases proportionately
rate of wound healing (wound tissue): significantly increases the rate of wound healing
affinity for AT2 than AT1 (AT2 receptor): 100 times
ability to generate hydrogen peroxide (respiratory burst) [2]: increased the ability of leukocytes to generate hydrogen peroxide
